Values after ≈ are worked out from the molar mass of the structure shown.

By MIC is commonly meant the lowest concentration that inhibits growth of the organism.

The test system of test [1] is Staphylococcus aureus. The test is described as follows: Antibacterial activity against methicillin-resistant Staphylococcus aureus N315 after 24 hrs by two fold serial dilution method. The test is classed as functional. Particulars: N315, 24 h.
The test system of test [2] is Staphylococcus aureus. The test is described as follows: Antibacterial activity against Staphylococcus aureus ATCC25923 after 24 hrs by two fold serial dilution method. The note with it: ATCC25923, 24 h. The test is classed as functional.
For a further test, the system named is Bacillus subtilis. As to the kind of experiment: Antibacterial activity against Bacillus subtilis ATCC6633 after 24 hrs by two fold serial dilution method. Particulars: ATCC6633, 24 h. The test is classed as functional.
The subject of the next test is Micrococcus luteus. The test is described as follows: Antibacterial activity against Micrococcus luteus ATCC4698 after 24 hrs by two fold serial dilution method. The format is functional. The note with it: ATCC4698, 24 h.
The subject of test [3] is Escherichia coli. The test is described as follows: Antibacterial activity against Escherichia coli DH52 after 24 hrs by two fold serial dilution method. The format is functional. The note with it: DH52, 24 h.
Test [4] has as its system Escherichia coli. As to the kind of experiment: Antibacterial activity against Escherichia coli JM109 after 24 hrs by two fold serial dilution method. The format is functional. Particulars: JM109, 24 h.
The test system of another test is Shigella dysenteriae. As to the kind of experiment: Antibacterial activity against Shigella dysenteriae after 24 hrs by two fold serial dilution method. The test is classed as functional.
A further test deals with Pseudomonas aeruginosa. The test is described as follows: Antibacterial activity against Pseudomonas aeruginosa ATCC27853 after 24 hrs by two fold serial dilution method. The format is functional. The note with it: ATCC27853, 24 h.
For a further test, the system named is Bacillus. As to the kind of experiment: Antibacterial activity against Bacillus proteus ATCC13315 after 24 hrs by two fold serial dilution method. The format is functional. Particulars: ATCC13315, 24 h.
The subject of a further test is Salmonella typhi. As to the kind of experiment: Antibacterial activity against Bacillus typhi after 24 hrs by two fold serial dilution method. The format is functional, Salmonella enterica subsp. enterica serovar Typhi. The note with it: Salmonella enterica.
For the next test, the system named is Candida albicans. As to the kind of experiment: Antifungal activity against Candida albicans ATCC76615 after 24 hrs by two fold serial dilution method. The test is classed as functional. The note with it: ATCC76615, 24 h.
In a further test the test system is Candida. The test is described as follows: Antifungal activity against Candida mycoderma ATCC10231 after 24 hrs by two fold serial dilution method. The format is functional. The note with it: ATCC10231, 24 h.
The subject of the next test is Cyberlindnera jadinii. The test is described as follows: Antifungal activity against Candida utilis ATCC9950 after 24 hrs by two fold serial dilution method. The test is classed as functional. Particulars: Williopsis jadinii, ATCC9950, 24 h.
The subject of a further test is Aspergillus flavus. As to the kind of experiment: Antifungal activity against Aspergillus flavus ATCC204304 after 24 hrs by two fold serial dilution method. The test is classed as functional. The note with it: ATCC204304, 24 h.
The test system of the next test is Saccharomyces cerevisiae. The test is described as follows: Antifungal activity against Beer yeast ATCC9763 after 24 hrs by two fold serial dilution method. The note with it: ATCC9763, 24 h. The format is functional.
Test [5] deals with Escherichia coli. The test is described as follows: Potency index, ratio of chloromycin MIC to compound MIC for Escherichia coli JM109. The format is functional.

Turning to `CCCCCCCCCCCCn1c(CCCC)nc(Cl)c1/C=N/N1C(=O)c2cccc3c(N4CCOCC4)ccc(c23)C1=O`, the MIC against Staphylococcus aureus [1] stood at 200 µM (≈ 127 µg/mL); against Staphylococcus aureus [2], 400 µM (≈ 254 µg/mL); against Bacillus subtilis, 800 µM (≈ 507 µg/mL); against Micrococcus luteus it was 400 µM (≈ 254 µg/mL); against Escherichia coli [3], 800 µM (≈ 507 µg/mL); in the test on Escherichia coli [4], 10 µM (≈ 6.34 µg/mL). Further, the minimal inhibitory concentration (MIC) in the test with Shigella dysenteriae amounted to 0.8 µM (≈ 0.507 µg/mL); in the test with Pseudomonas aeruginosa, 800 µM (≈ 507 µg/mL); against Bacillus, 800 µM (≈ 507 µg/mL); against Salmonella typhi, 0.8 µM (≈ 0.507 µg/mL); with Candida albicans, 810 µM (≈ 514 µg/mL); with Candida it was 810 µM (≈ 514 µg/mL). Further, the values for the MIC in the test on Cyberlindnera jadinii, in the test with Aspergillus flavus and in the test with Saccharomyces cerevisiae were 10 µM (≈ 6.34 µg/mL), 810 µM (≈ 514 µg/mL) and 400 µM (≈ 254 µg/mL), respectively. The Ratio with Escherichia coli [5] worked out at 10.
Take `CCCCc1nc(Cl)c(/C=N/N2C(=O)c3cccc4c(N5CCOCC5)ccc(c34)C2=O)n1Cc1cccc(F)c1`: the minimum inhibitory concentration (MIC) against Staphylococcus aureus [1] was 440 µM (≈ 253 µg/mL); with Staphylococcus aureus [2] it was 220 µM (≈ 126 µg/mL); in the test on Bacillus subtilis it was 440 µM (≈ 253 µg/mL); with Micrococcus luteus it was 440 µM (≈ 253 µg/mL); against Escherichia coli [3] it was 440 µM (≈ 253 µg/mL); in the test on Escherichia coli [4] it was 440 µM (≈ 253 µg/mL). The minimal inhibitory concentration (MIC) was 0.89 µM (≈ 0.511 µg/mL) against Shigella dysenteriae; 440 µM (≈ 253 µg/mL) with Pseudomonas aeruginosa; 220 µM (≈ 126 µg/mL) against Bacillus; 0.89 µM (≈ 0.511 µg/mL) with Salmonella typhi; 440 µM (≈ 253 µg/mL) against Candida albicans; 440 µM (≈ 253 µg/mL) against Candida. Besides, the MIC in the test on Cyberlindnera jadinii, against Aspergillus flavus and in the test with Saccharomyces cerevisiae was 440 µM (≈ 253 µg/mL) each time.
For `CCCCc1nc(Cl)c(/C=N/N2C(=O)c3cccc4c(N5CCOCC5)ccc(c34)C2=O)n1Cc1ccc(OC)cc1`, the MIC with Staphylococcus aureus [1] was found to be 440 µM (≈ 258 µg/mL); in the test with Staphylococcus aureus [2], 440 µM (≈ 258 µg/mL); against Bacillus subtilis it was 440 µM (≈ 258 µg/mL); with Micrococcus luteus, 870 µM (≈ 510 µg/mL); with Escherichia coli [3] it was 440 µM (≈ 258 µg/mL); with Escherichia coli [4] it was 870 µM (≈ 510 µg/mL). In addition, the minimum inhibitory concentration (MIC) with Shigella dysenteriae worked out at 0.44 µM (≈ 0.258 µg/mL); in the test with Pseudomonas aeruginosa, 440 µM (≈ 258 µg/mL); with Bacillus it was 220 µM (≈ 129 µg/mL); in the test with Salmonella typhi it was 0.44 µM (≈ 0.258 µg/mL); against Candida albicans, 430 µM (≈ 252 µg/mL); in the test on Candida, 870 µM (≈ 510 µg/mL). Also, the values for the MIC in the test with Cyberlindnera jadinii, against Aspergillus flavus and with Saccharomyces cerevisiae were 430 µM (≈ 252 µg/mL), 430 µM (≈ 252 µg/mL) and 220 µM (≈ 129 µg/mL), respectively.
In the case of `CCCCCCCn1c(CCCC)nc(Cl)c1/C=N/N1C(=O)c2cccc3c(N4CCOCC4)ccc(c23)C1=O`, the minimal inhibitory concentration (MIC) against Staphylococcus aureus [1], against Staphylococcus aureus [2], against Bacillus subtilis, in the test with Micrococcus luteus, in the test with Escherichia coli [3] and in the test with Escherichia coli [4] was 450 µM (≈ 254 µg/mL) in each case. In addition, the minimum inhibitory concentration (MIC) was found to be 0.91 µM (≈ 0.513 µg/mL) in the test with Shigella dysenteriae; 450 µM (≈ 254 µg/mL) with Pseudomonas aeruginosa; 450 µM (≈ 254 µg/mL) against Bacillus; 0.45 µM (≈ 0.254 µg/mL) with Salmonella typhi; 230 µM (≈ 130 µg/mL) against Candida albicans; 450 µM (≈ 254 µg/mL) against Candida. Also, the MIC against Cyberlindnera jadinii, against Aspergillus flavus and against Saccharomyces cerevisiae was 450 µM (≈ 254 µg/mL) throughout.
`CCCCc1nc(Cl)c(/C=N/N2C(=O)c3cccc4c(N5CCOCC5)ccc(c34)C2=O)n1Cc1ccc(C)cc1`: the minimal inhibitory concentration (MIC) was 450 µM (≈ 257 µg/mL) in the test with Staphylococcus aureus [1]; 220 µM (≈ 125 µg/mL) in the test with Staphylococcus aureus [2]; 890 µM (≈ 507 µg/mL) against Bacillus subtilis; 450 µM (≈ 257 µg/mL) in the test on Micrococcus luteus; 890 µM (≈ 507 µg/mL) with Escherichia coli [3]; 60 µM (≈ 34.2 µg/mL) against Escherichia coli [4]. In addition, the MIC in the test on Shigella dysenteriae amounted to 0.11 µM (≈ 0.0627 µg/mL); against Pseudomonas aeruginosa, 450 µM (≈ 257 µg/mL); in the test with Bacillus, 450 µM (≈ 257 µg/mL); against Salmonella typhi, 0.45 µM (≈ 0.257 µg/mL); in the test on Candida albicans it was 450 µM (≈ 257 µg/mL); in the test with Candida, 900 µM (≈ 513 µg/mL). In addition, the minimum inhibitory concentration (MIC) in the test on Cyberlindnera jadinii stood at 110 µM (≈ 62.7 µg/mL); in the test with Aspergillus flavus, 900 µM (≈ 513 µg/mL); in the test with Saccharomyces cerevisiae it was 450 µM (≈ 257 µg/mL).

The record behind these values is ChEMBL document CHEMBL3817825, “Synthesis and biological evaluation of Schiff base-linked imidazolyl naphthalimides as novel potential anti-MRSA agents” (2016).
